{"source": "PubChem BioAssay AID1259407", "about": "(Chemical Carcinogenesis Research Information System (CCRIS), 2018)", "tested_on": "CCRIS mutagenicity, Ames/micronucleus/aberration tests", "assay": "CCRIS mutagenicity studies", "key": {"[1]": {"details": "Test System: AMES SALMONELLA TYPHIMURIUM, Strain/Indicator: TA98, Metabolic Activation: NONE, Method: PREINCUBATION"}, "[2]": {"details": "Test System: AMES SALMONELLA TYPHIMURIUM, Strain/Indicator: TA98, Metabolic Activation: NONE, Method: STANDARD PLATE"}, "[3]": {"details": "Test System: AMES SALMONELLA TYPHIMURIUM, Strain/Indicator: TA98, Metabolic Activation: RAT, LIVER, S-9, AROCLOR 1254, Method: STANDARD PLATE"}, "[4]": {"details": "Test System: AMES SALMONELLA TYPHIMURIUM, Strain/Indicator: TA100, Metabolic Activation: NONE, Method: STANDARD PLATE"}, "[5]": {"details": "Test System: AMES SALMONELLA TYPHIMURIUM, Strain/Indicator: TA100, Metabolic Activation: RAT, LIVER, S-9, AROCLOR 1254, Method: STANDARD PLATE"}, "[6]": {"details": "Test System: AMES SALMONELLA TYPHIMURIUM, Strain/Indicator: TA1535, Metabolic Activation: NONE, Method: STANDARD PLATE"}, "[7]": {"details": "Test System: AMES SALMONELLA TYPHIMURIUM, Strain/Indicator: TA1535, Metabolic Activation: RAT, LIVER, S-9, AROCLOR 1254, Method: STANDARD PLATE"}, "[8]": {"details": "Test System: AMES SALMONELLA TYPHIMURIUM, Strain/Indicator: TA1537, Metabolic Activation: NONE, Method: STANDARD PLATE"}, "[9]": {"details": "Test System: AMES SALMONELLA TYPHIMURIUM, Strain/Indicator: TA1537, Metabolic Activation: RAT, LIVER, S-9, AROCLOR 1254, Method: STANDARD PLATE"}}, "note": "Activity calls are given as the source filed them. How the calls were made is not given here.", "data": [{"compound": "Cn1cnc([N+](=O)[O-])c1Sc1ncnc2nc[nH]c12", "values": [{"measurement": "mutagenic call", "setting": "Test System: AMES SALMONELLA TYPHIMURIUM, Strain/Indicator: TA98, Metabolic Activation: HAMSTER, LIVER, S-9, AROCLOR 1254 (30%), Method: PREINCUBATION", "result": "inactive; negative"}, {"measurement": "mutagenic call", "setting": "[1]", "result": "inactive; negative"}, {"measurement": "mutagenic call", "setting": "Test System: AMES SALMONELLA TYPHIMURIUM, Strain/Indicator: TA98, Metabolic Activation: RAT, LIVER, S-9, AROCLOR 1254 (30%), Method: PREINCUBATION", "result": "inactive; negative"}, {"measurement": "mutagenic call", "setting": "Test System: AMES SALMONELLA TYPHIMURIUM, Strain/Indicator: TA100, Metabolic Activation: HAMSTER, LIVER, S-9, AROCLOR 1254 (30%), Method: PREINCUBATION", "result": "active; positive"}, {"measurement": "mutagenic call", "setting": "Test System: AMES SALMONELLA TYPHIMURIUM, Strain/Indicator: TA100, Metabolic Activation: NONE, Method: PREINCUBATION", "result": "active; positive"}, {"measurement": "mutagenic call", "setting": "Test System: AMES SALMONELLA TYPHIMURIUM, Strain/Indicator: TA100, Metabolic Activation: RAT, LIVER, S-9, AROCLOR 1254 (30%), Method: PREINCUBATION", "result": "active; positive"}]}, {"compound": "c1ccc([C@H]2O[C@H]2c2ccccc2)cc1", "values": [{"measurement": "mutagenic call", "setting": "Test System: UDS RAT HEPATOCYTES, Strain/Indicator: THY INCORP, Metabolic Activation: NONE", "result": "inactive; negative"}]}, {"compound": "O=[N+]([O-])c1ccc2cccc3c2c1CC3", "values": [{"measurement": "mutagenic call", "setting": "[2]", "result": "active; positive"}]}, {"compound": "O=C(O)c1cccc2cccnc12", "values": [{"measurement": "mutagenic call", "setting": "[2]", "result": "inactive; negative"}, {"measurement": "mutagenic call", "setting": "[3]", "result": "inactive; negative"}, {"measurement": "mutagenic call", "setting": "[4]", "result": "inactive; negative"}, {"measurement": "mutagenic call", "setting": "[5]", "result": "inactive; negative"}, {"measurement": "mutagenic call", "setting": "[6]", "result": "inactive; negative"}, {"measurement": "mutagenic call", "setting": "[7]", "result": "inactive; negative"}, {"measurement": "mutagenic call", "setting": "[8]", "result": "inactive; negative"}, {"measurement": "mutagenic call", "setting": "[9]", "result": "inactive; negative"}]}, {"compound": "CC1CCC(C(C)C)C(=O)C1", "note": "(stereo not given)", "values": [{"measurement": "mutagenic call", "setting": "Test System: AMES SALMONELLA TYPHIMURIUM, Strain/Indicator: TA97, Metabolic Activation: NONE, Method: STANDARD PLATE", "result": "active; positive"}, {"measurement": "mutagenic call", "setting": "[2]", "result": "inactive; negative"}, {"measurement": "mutagenic call", "setting": "[3]", "result": "inactive; negative"}, {"measurement": "mutagenic call", "setting": "[4]", "result": "inactive; negative"}, {"measurement": "mutagenic call", "setting": "[5]", "result": "inactive; negative"}, {"measurement": "mutagenic call", "setting": "[6]", "result": "inactive; negative"}, {"measurement": "mutagenic call", "setting": "[7]", "result": "inactive; negative"}, {"measurement": "mutagenic call", "setting": "[8]", "result": "inactive; negative"}, {"measurement": "mutagenic call", "setting": "[9]", "result": "inactive; negative"}]}, {"compound": "C[C@@H]1CC[C@@]2(OC1)O[C@H]1C[C@H]3[C@@H]4CC=C5C[C@@H](O[C@@H]6O[C@H](CO)[C@@H](O)[C@H](O[C@@H]7O[C@H](CO)[C@@H](O)[C@H](O)[C@H]7O)[C@H]6O[C@@H]6O[C@@H](C)[C@H](O)[C@@H](O)[C@H]6O)CC[C@]5(C)[C@H]4CC[C@]3(C)[C@H]1[C@@H]2C", "values": [{"measurement": "mutagenic call", "setting": "[2]", "result": "inactive; negative"}, {"measurement": "mutagenic call", "setting": "Test System: AMES SALMONELLA TYPHIMURIUM, Strain/Indicator: TA98, Metabolic Activation: RAT, LIVER, S-9, PHENOBARBITAL, Method: STANDARD PLATE", "result": "inactive; negative"}, {"measurement": "mutagenic call", "setting": "[4]", "result": "inactive; negative"}, {"measurement": "mutagenic call", "setting": "Test System: AMES SALMONELLA TYPHIMURIUM, Strain/Indicator: TA100, Metabolic Activation: RAT, LIVER, S-9, PHENOBARBITAL, Method: STANDARD PLATE", "result": "inactive; negative"}]}, {"compound": "NNC(=O)CNc1ccc2ccccc2c1", "values": [{"measurement": "mutagenic call", "setting": "[2]", "result": "inactive; negative"}, {"measurement": "mutagenic call", "setting": "[3]", "result": "inactive; negative"}, {"measurement": "mutagenic call", "setting": "[4]", "result": "inactive; negative"}, {"measurement": "mutagenic call", "setting": "[5]", "result": "inactive; negative"}, {"measurement": "mutagenic call", "setting": "[8]", "result": "inactive; negative"}, {"measurement": "mutagenic call", "setting": "[9]", "result": "inactive; negative"}]}, {"compound": "Nc1cc(N)cc(Cl)c1", "values": [{"measurement": "mutagenic call", "setting": "End Point: IN VITRO CHROMOSOMAL ABERRATIONS, Test System: CHL CELLS, Metabolic Activation: RAT, LIVER, S-9, SODIUM PHENOBARBITAL AND 5,6-BENZOFLAVONE", "result": "active; positive (structural changes)"}, {"measurement": "mutagenic call", "setting": "Test System: UDS RODENT HEPATOCYTES, Strain/Indicator: THY INCORP (NON-S-PHASE), Metabolic Activation: NONE, Method: AUTORADIOGRAPHY", "result": "active; positive"}]}, {"compound": "CCc1c(O)c(O)c2c(c1O)C(=O)C(O)=C(O)C2=O", "values": [{"measurement": "mutagenic call", "setting": "Test System: AMES SALMONELLA TYPHIMURIUM, Strain/Indicator: TA98, Metabolic Activation: MICROSOMAL FRACTION, FULLY ACTIVATED, AND RAT LIVER S-9, Method: STANDARD PLATE", "result": "active; positive"}, {"measurement": "mutagenic call", "setting": "Test System: AMES SALMONELLA TYPHIMURIUM, Strain/Indicator: TA98, Metabolic Activation: MICROSOMAL FRACTION, NON-FULLY ACTIVATED, Method: STANDARD PLATE", "result": "active; positive"}, {"measurement": "mutagenic call", "setting": "Test System: AMES SALMONELLA TYPHIMURIUM, Strain/Indicator: TA100, Metabolic Activation: MICROSOMAL FRACTION, FULLY ACTIVATED, AND RAT LIVER S-9, Method: STANDARD PLATE", "result": "active; positive"}, {"measurement": "mutagenic call", "setting": "Test System: AMES SALMONELLA TYPHIMURIUM, Strain/Indicator: TA100, Metabolic Activation: MICROSOMAL FRACTION, NON-FULLY ACTIVATED, Method: STANDARD PLATE", "result": "active; positive"}, {"measurement": "mutagenic call", "setting": "Test System: AMES SALMONELLA TYPHIMURIUM, Strain/Indicator: TA1537, Metabolic Activation: MICROSOMAL FRACTION, FULLY ACTIVATED, AND RAT LIVER S-9, Method: STANDARD PLATE", "result": "active; positive"}, {"measurement": "mutagenic call", "setting": "Test System: AMES SALMONELLA TYPHIMURIUM, Strain/Indicator: TA1537, Metabolic Activation: MICROSOMAL FRACTION, NON-FULLY ACTIVATED, Method: STANDARD PLATE", "result": "inactive; negative"}]}, {"compound": "CCC[CH2][Sn]([Cl])([Cl])[CH2]CCC", "values": [{"measurement": "mutagenic call", "setting": "Test System: AMES SALMONELLA TYPHIMURIUM, Strain/Indicator: TA98, Metabolic Activation: NONE, Method: SUSPENSION/PLATE", "result": "inactive; negative"}, {"measurement": "mutagenic call", "setting": "Test System: AMES SALMONELLA TYPHIMURIUM, Strain/Indicator: TA100, Metabolic Activation: NONE, Method: SUSPENSION/PLATE", "result": "inactive; negative"}]}, {"compound": "O=CC1=CCCC2CC12C=O", "note": "(stereo not given)", "values": [{"measurement": "mutagenic call", "setting": "[2]", "result": "active; positive"}, {"measurement": "mutagenic call", "setting": "[4]", "result": "active; positive"}]}, {"compound": "Nc1ccc2nc3ccc(N)cc3nc2c1", "values": [{"measurement": "mutagenic call", "setting": "[1]", "result": "inactive; negative"}, {"measurement": "mutagenic call", "setting": "Test System: AMES SALMONELLA TYPHIMURIUM, Strain/Indicator: TA98, Metabolic Activation: RAT, LIVER, S-9, PCB, Method: PREINCUBATION", "result": "active; positive"}]}, {"compound": "O=[N+]([O-])c1cc2c(cc1O)[nH]c1ccccc12", "values": [{"measurement": "mutagenic call", "setting": "Test System: AMES SALMONELLA TYPHIMURIUM, Strain/Indicator: TA98(NR), Metabolic Activation: NONE, Method: STANDARD PLATE", "result": "active; positive"}, {"measurement": "mutagenic call", "setting": "Test System: AMES SALMONELLA TYPHIMURIUM, Strain/Indicator: TA98(NR), Metabolic Activation: RAT, LIVER, S-9, AROCLOR 1254, Method: STANDARD PLATE", "result": "active; positive"}, {"measurement": "mutagenic call", "setting": "[2]", "result": "active; positive"}, {"measurement": "mutagenic call", "setting": "[3]", "result": "active; positive"}]}, {"compound": "CCCCCC(C)=O", "values": [{"measurement": "mutagenic call", "setting": "Test System: CHINESE HAMSTER V-79, Strain/Indicator: V-79 (HPRT)/6-THIOGUANINE, Metabolic Activation: NONE, Method: STANDARD PLATE", "result": "inactive; negative"}, {"measurement": "mutagenic call", "setting": "Test System: CHINESE HAMSTER V-79, Strain/Indicator: V-79 (HPRT)/6-THIOGUANINE, Metabolic Activation: RAT LIVER S-9, Method: STANDARD PLATE", "result": "inactive; negative"}]}]}
